Laboratory results as given in ChEMBL document CHEMBL4425165, “Discovery of Pyrazolo[1,5-a]pyrimidine TTK Inhibitors: CFI-402257 is a Potent, Selective, Bioavailable Anticancer Agent” (ACS Med Chem Lett, 2016).
Values after ≈ are worked out from the molar mass of the structure shown.

How the values were obtained:
[1] = Solubility of the compound at pH 2; type: physicochemical; conditions: buffer
[2] = Cmax in athymic CD-1 nude mouse at 10 mg/kg, po by LC-MS/MS analysis; type: ADME, organism-based; parameters: dose 10 mg/kg, route oral; conditions: in vivo
HCT-116 = assay: Growth inhibition of human HCT116 cells measured after 5 days by sulforhodamine B assay; type: functional; conditions: HCT-116, 120 h
MDA-MB-468 = assay: Growth inhibition of human MDA-MB-468 cells measured after 5 days by sulforhodamine B assay; type: functional; conditions: MDA-MB-468, 120 h
[3] = AUC in athymic CD-1 nude mouse at 10 mg/kg, po by LC-MS/MS analysis; type: ADME, organism-based; conditions: in vivo
[4] = Dissociation constant, pKa of the compound; type: physicochemical
OVCAR-3 = assay: Growth inhibition of human OVCAR3 cells measured after 5 days by sulforhodamine B assay; type: functional; conditions: OVCAR-3, 120 h
[5] = Solubility of the compound at pH 7.4; type: physicochemical; conditions: buffer
[6] = target: T1, Dual specificity protein kinase TTK (Homo sapiens, UniProt P33981)
T1 sequence (P33981 whole entry): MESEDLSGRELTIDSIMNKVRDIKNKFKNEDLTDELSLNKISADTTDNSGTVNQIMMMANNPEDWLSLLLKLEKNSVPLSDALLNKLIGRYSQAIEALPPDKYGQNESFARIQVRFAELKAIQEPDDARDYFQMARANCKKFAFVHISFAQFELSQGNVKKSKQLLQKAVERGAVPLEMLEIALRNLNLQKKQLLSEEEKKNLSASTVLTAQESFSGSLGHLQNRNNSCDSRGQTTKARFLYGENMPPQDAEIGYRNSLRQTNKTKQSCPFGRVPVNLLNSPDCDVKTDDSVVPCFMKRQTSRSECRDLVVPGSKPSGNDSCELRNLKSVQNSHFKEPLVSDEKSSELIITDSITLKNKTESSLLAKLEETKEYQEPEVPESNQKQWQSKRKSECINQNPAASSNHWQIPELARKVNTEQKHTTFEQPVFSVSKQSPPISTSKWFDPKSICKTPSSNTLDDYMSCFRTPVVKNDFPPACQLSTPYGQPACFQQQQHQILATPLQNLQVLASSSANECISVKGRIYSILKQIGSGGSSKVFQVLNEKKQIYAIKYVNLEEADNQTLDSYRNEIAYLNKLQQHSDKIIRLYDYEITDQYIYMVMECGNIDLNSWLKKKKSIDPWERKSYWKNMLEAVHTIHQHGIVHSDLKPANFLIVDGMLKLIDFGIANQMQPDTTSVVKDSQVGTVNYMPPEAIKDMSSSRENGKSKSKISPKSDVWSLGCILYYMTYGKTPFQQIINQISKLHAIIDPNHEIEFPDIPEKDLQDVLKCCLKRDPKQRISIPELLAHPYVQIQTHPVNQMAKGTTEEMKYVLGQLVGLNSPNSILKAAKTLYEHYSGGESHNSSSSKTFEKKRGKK

Row | SMILES | solubility [1] [µg/mL] | Cmax [2] [ng/mL] | GI50 (HCT-116) [nM] | GI50 (MDA-MB-468) [nM] | AUC [3] [ng·h/mL] | pKa [4] | GI50 (OVCAR-3) [nM] | solubility [5] [µg/mL] | IC50 [6] [nM]
1 | Cc1cc(-c2cnn3c(NC[C@H]4CC[C@@H](O)CC4)cc(Oc4cccnc4)nc23)ccc1C(=O)NC1CC1 | 360 (≈ 702 µM) | 750 | 17 | 19 | 3400 | 3.7 | 43 | 2.1 (≈ 4.1 µM) | 1.8
2 | Cc1cc(-c2cnn3c(NCC4CCOCC4)nc(NC4CCCC4)nc23)ccc1C(=O)NC1CC1 | 28 (≈ 57.2 µM) | 430 | 130 | 320 | 530 | 2.7 | 480 | 3.6 (≈ 7.35 µM) | 5.8
3 | Cc1cc(-c2cnn3c(NC[C@H]4CC[C@H](O)CC4)cc(Oc4cccnc4)nc23)ccc1C(=O)NC1CC1 | 360 (≈ 702 µM) | 190 | 50 | 160 | 700 | 3.7 | 270 | 2.1 (≈ 4.1 µM) | 2.8
4 | Cc1cc(-c2cnn3c(NCC4CCOCC4)cc(N[C@@H]4CCCC[C@H]4O)nc23)ccc1C(=O)NC1CC1 | 410 (≈ 790 µM) |  | 130 | 180 |  | 3.3 | 340 | 13 (≈ 25.1 µM) | 13
5 | CC[C@H](CO)Nc1cc(NCC2CCOCC2)n2ncc(-c3ccc(C(=O)NC4CC4)c(C)c3)c2n1 | 1100 (≈ 2230 µM) |  | 210 | 480 |  | 3.5 | 1100 | 27 (≈ 54.8 µM) | 21

Further molecules by falling GI50 (HCT-116), results first:

Row | solubility [1] [µg/mL] | Cmax [2] [ng/mL] | GI50 (HCT-116) [nM] | GI50 (MDA-MB-468) [nM] | AUC [3] [ng·h/mL] | pKa [4] | GI50 (OVCAR-3) [nM] | solubility [5] [µg/mL] | IC50 [6] [nM] | SMILES
6 | 480 (≈ 951 µM) | 1300 | 59 | 62 | 1500 | 3.2 | 79 | 23 (≈ 45.6 µM) | 2.7 | Cc1cc(-c2cnn3c(NCC4CCOCC4)cc(N[C@H]4CCC[C@H]4O)nc23)ccc1C(=O)NC1CC1
7 | 110 (≈ 225 µM) |  | 49 | 130 |  | 3.2 | 210 | 3.6 (≈ 7.37 µM) | 5.3 | Cc1cc(-c2cnn3c(NC[C@H]4C[C@](C)(O)C4)cc(NC4CCCC4)nc23)ccc1C(=O)NC1CC1
8 | 560 (≈ 1120 µM) | 1800 | 40 | 71 | 3900 | 3.7 | 100 | 3.3 (≈ 6.62 µM) |  | Cc1cc(-c2cnn3c(NC[C@H]4C[C@](C)(O)C4)cc(Oc4cccnc4)nc23)ccc1C(=O)NC1CC1
9 | 88 (≈ 180 µM) | 2300 | 15 | 36 | 4000 | 3.2 | 90 | 3.1 (≈ 6.34 µM) | 3.2 | Cc1cc(-c2cnn3c(NCC4CCOCC4)cc(NC4CCCC4)nc23)ccc1C(=O)NC1CC1
10 | 110 (≈ 225 µM) | 2900 | 14 | 57 | 7300 | 3.2 | 87 | 3.6 (≈ 7.37 µM) | 2.6 | Cc1cc(-c2cnn3c(NC[C@H]4C[C@@](C)(O)C4)cc(NC4CCCC4)nc23)ccc1C(=O)NC1CC1
11 | 12000 (≈ 23400 µM) | 1000 | 11 | 18 | 2700 | 6.7 | 24 | 1.6 (≈ 3.12 µM) | 3 | Cc1cc(-c2cnn3c(NCCN4CCOCC4)cc(Oc4ccccc4)nc23)ccc1C(=O)NC1CC1
12 | 930 (≈ 1920 µM) | 120 | 2 | 2 | 130 | 3.7 | 11 | 5.4 (≈ 11.1 µM) | 1.1 | Cc1cc(-c2cnn3c(NC[C@H]4C[C@H](O)C4)cc(Oc4cccnc4)nc23)ccc1C(=O)NC1CC1
13 | 410 (≈ 790 µM) | 2200 | 1 | 3 | 2400 | 3.3 | 9 | 13 (≈ 25.1 µM) | 2 | Cc1cc(-c2cnn3c(NCC4CCOCC4)cc(N[C@H]4CCCC[C@H]4O)nc23)ccc1C(=O)NC1CC1
